What was measured:
Assay type in all cases: physicochemical
[1] = Thermogravimetric analysis (TGA); settings: up to 200° C.
Protocol: Thermal Gravimetric Analysis
Thermal Gravimetric Analysis (TGA) was performed using a TA Instruments Discovery thermographic analyzer, with temperature calibration being performed using nickel and Alumel™. Each sample was placed in a pan, hermetically sealed, the lid pierced, and then inserted into the thermal gravimetric furnace which was heated under nitrogen.

[2] = Exposure to elevated relative humidity, form checked by XRPD; settings: 93% relative humidity, four days, ambient temperature
Protocol: XRPD patterns were obtained with a PANalytical X′Pert PRO MPD diffractometer using an incident beam of Cu radiation (1.54059 angstroms) produced using an Optix long, fine-focus source. The diffractometer was configured using the symmetric Bragg-Brentano geometry. Prior to analysis, a silicon sample (NIST SRM 640e) was analyzed to verify the observed position of the Si 111 peak was consistent with the NIST-certified position. A specimen of the sample was prepared as a thin, circular layer centered on a silicon zero-background substrate. Antiscatter slits (SS) were used to minimize the background generated by air. Soller slits for the incident and diffracted beams were used to minimize broadening fro axial divergence. Diffraction patterns were collected using a scanning position-sensitive detector located 240 mm from the sample.

[3] = Dynamic vapor sorption/desorption (DVS) isotherm
Protocol: Dynamic Vapor Sorption/Desorption (DVS)
Dynamic Vapor Sorption/Desorption (DVS) data was collected on a VTI SGA-100 Vapor Sorption Analyzer, using NaCl and PVP as calibration standards. Samples were not dried prior to analysis. Sorption and desorption data were collected over a range from 5% to 95% relative humidity (RH) at 10% RH increments under a nitrogen purge. The equilibrium criterion used for analysis was less than 0.01000% weight change in 5 minutes with a maximum equilibration time of 3 hours. Data were not corrected for the initial moisture content of the samples.

C=CC(=O)N1CCN(CCCn2c(=O)c(-c3c(Cl)c(OC)cc(OC)c3Cl)cc3cnc(NC)nc32)CC1 [Form 1, 6-(2,6-dichloro-3,5-dimethoxyphenyl)-2-(methylamino)-8-[3-[4-(prop-2-enoyl)piperazin-1-yl]propyl]-7H,8H-pyrido[2,3-d]pyrimidin-7-one]
weight loss (TGA) [1]: ≤ 0.20% | change in form observable by XRPD (physical stability at elevated humidity) [2]: did not result in any changes in form observable by XRPD | phase change after DVS testing, by XRPD analysis ([3]; sample evaluated after exposure to humidity in the DVS testing): a phase change did not occur | hygroscopicity (DVS: weight gain in each sorption cycle, hysteresis upon desorption) ([3]; sorption/desorption 5% to 95% RH): not hygroscopic | weight percent change (DVS isotherm) ([3]; up to a percent relative humidity of about 95% (94.79%)): ≤ 0.31 wt %

Source: US10538518B2, “Processes for preparing an FGFR inhibitor” (Principia Biopharma, Inc., priority 2015, dated 2020)
